Square brackets hold non-standard residues; d marks the D form. Peptide text beside a SMILES is read from it. Phe(4-I) = N[C@@H](Cc1ccc(I)cc1)C(=O)O; dPhe(4-I) = N[C@H](Cc1ccc(I)cc1)C(=O)O; 2Nal = N[C@@H](Cc1ccc2ccccc2c1)C(=O)O; d2Nal = N[C@H](Cc1ccc2ccccc2c1)C(=O)O
How the values were obtained:
Format in all cases: cell-based
[1] = biological target: mMC1R (Mus musculus, UniProt Q01727); test: AlphaScreen cAMP agonist assay, HEK293 cells stably expressing mMC1R; conditions: for mMC1R partial agonist percentage of receptor activation relative to NDP-MSH: partial agonists; for mMC1R agonist activity in words: full agonist = 90% of maximal NDP-MSH signal
[2] = biological target: mMC3R (Mus musculus, UniProt P33033); test: AlphaScreen cAMP agonist assay, HEK293 cells stably expressing mMC3R; conditions: at 100 μM
[3] = biological target: mMC5R (Mus musculus, UniProt P41149); test: AlphaScreen cAMP agonist assay, HEK293 cells stably expressing mMC5R; conditions: for mMC5R EC50: agonist, >100,000 = no agonist activity up to 100 μM; for mMC5R percent maximal stimulatory response (compared to NDP-MSH): at 100 μM
Chain of mMC5R (P41149 whole entry): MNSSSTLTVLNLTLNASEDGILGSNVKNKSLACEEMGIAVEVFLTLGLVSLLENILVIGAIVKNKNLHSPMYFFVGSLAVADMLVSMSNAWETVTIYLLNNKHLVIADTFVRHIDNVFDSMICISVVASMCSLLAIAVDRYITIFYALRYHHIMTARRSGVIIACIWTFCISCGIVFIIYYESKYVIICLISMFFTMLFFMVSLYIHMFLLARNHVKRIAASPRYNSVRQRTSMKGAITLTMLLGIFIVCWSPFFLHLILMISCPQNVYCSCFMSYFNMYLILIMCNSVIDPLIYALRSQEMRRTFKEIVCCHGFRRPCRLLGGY

Chain of mMC1R (Q01727 whole entry): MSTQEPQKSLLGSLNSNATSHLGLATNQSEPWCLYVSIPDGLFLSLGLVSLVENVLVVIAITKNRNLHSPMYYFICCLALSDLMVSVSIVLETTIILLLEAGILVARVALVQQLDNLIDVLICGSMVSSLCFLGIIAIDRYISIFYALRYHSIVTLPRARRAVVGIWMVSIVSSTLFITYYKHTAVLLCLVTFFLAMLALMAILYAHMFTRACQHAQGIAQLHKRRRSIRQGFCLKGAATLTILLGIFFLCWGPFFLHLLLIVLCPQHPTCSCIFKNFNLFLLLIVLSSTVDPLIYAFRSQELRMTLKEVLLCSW
Chain of mMC3R (P33033 whole entry): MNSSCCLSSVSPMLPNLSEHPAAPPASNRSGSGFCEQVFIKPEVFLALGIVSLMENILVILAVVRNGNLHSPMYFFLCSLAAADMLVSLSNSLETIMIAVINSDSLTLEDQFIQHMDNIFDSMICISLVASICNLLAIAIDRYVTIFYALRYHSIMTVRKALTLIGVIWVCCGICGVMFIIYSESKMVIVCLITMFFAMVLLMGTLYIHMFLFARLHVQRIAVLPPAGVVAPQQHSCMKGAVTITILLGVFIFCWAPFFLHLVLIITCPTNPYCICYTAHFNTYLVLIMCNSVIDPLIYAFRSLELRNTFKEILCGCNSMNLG

| mMC3R percent maximal stimulatory response (compared to NDP-MSH) [2] [% @100μM] | mMC1R agonist activity in words [1] | SMILES | other results |
| --- | --- | --- | --- |
| – | full agonist activity | CC(=O)N[C@H](Cc1ccc(I)cc1)C(=O)N[C@@H](CCCNC(=N)N)C(=O)N[C@H](Cc1ccc(I)cc1)C(=O)N[C@@H](CCCNC(=N)N)C(N)=O [Peptide 45, Ac-DPhe(pI)-Arg-DPhe(pI)-Arg-NH2] (Ac-[dPhe(4-I)]R[dPhe(4-I)]R-NH2) | – |
| 25 | – | CC(=O)N[C@H](Cc1ccc(I)cc1)C(=O)N[C@@H](CCCNC(=N)N)C(=O)N[C@@H](Cc1c[nH]c2ccccc12)C(=O)N[C@H](Cc1ccc2ccccc2c1)C(N)=O [Peptide 41, Ac-DPhe(pI)-Arg-Trp-DNal(2’)-NH2] (Ac-[dPhe(4-I)]RW[d2Nal]-NH2) | – |
| 40 | – | CC(=O)N[C@H](Cc1ccc2ccccc2c1)C(=O)N[C@@H](CCCNC(=N)N)C(=O)N[C@@H](Cc1c[nH]c2ccccc12)C(=O)N[C@H](Cc1ccc2ccccc2c1)C(N)=O [Peptide 17, Ac-DNal(2’)-Arg-Trp-DNal(2’)-NH2] (Ac-[d2Nal]RW[d2Nal]-NH2) | – |
| – | full agonist activity | CC(=O)N[C@H](Cc1ccc2ccccc2c1)C(=O)N[C@@H](CCCNC(=N)N)C(=O)N[C@H](Cc1ccc(I)cc1)C(=O)N[C@H](CCCCN)C(N)=O [Peptide 19, Ac-DNal(2’)-Arg-DPhe(pI)-DLys-NH2] | – |
| – | partially stimulate | CC(=O)N[C@@H](Cc1ccc(I)cc1)C(=O)N[C@@H](Cc1ccc2ccccc2c1)C(=O)N[C@@H](Cc1ccc(I)cc1)C(=O)N[C@@H](CCCNC(=N)N)C(N)=O [Peptide 49, Ac-Phe(pI)-Nal(2’)-Phe(pI)-Arg-NH2] (Ac-[Phe(4-I)][2Nal][Phe(4-I)]R-NH2) | mMC5R EC50 [3]: did not possess agonist activity |
| – | – | CC(=O)N[C@H](Cc1ccc(I)cc1)C(=O)N[C@H](Cc1ccc2ccccc2c1)C(=O)N[C@@H](Cc1c[nH]c2ccccc12)C(=O)N[C@@H](CCCNC(=N)N)C(N)=O [Peptide 30, Ac-DPhe(pI)-DNal(2’)-Trp-Arg-NH2] | mMC5R EC50 [3]: inactive |
| – | full agonist activity | CC(=O)N[C@H](Cc1ccc(I)cc1)C(=O)N[C@@H](CCCNC(=N)N)C(=O)N[C@H](Cc1ccc(I)cc1)C(=O)N[C@H](CCCCN)C(N)=O [Peptide 43, Ac-DPhe(pI)-Arg-DPhe(pI)-DLys-NH2] (Ac-[dPhe(4-I)]R[dPhe(4-I)][dK]-NH2) | – |
| – | full agonist activity | CC(=O)N[C@H](Cc1ccc2ccccc2c1)C(=O)N[C@@H](CCCNC(=N)N)C(=O)N[C@H](Cc1ccc(I)cc1)C(=O)N[C@@H](CCCNC(=N)N)C(N)=O [Peptide 21, Ac-DNal(2’)-Arg-DPhe(pI)-Arg-NH2] (Ac-[d2Nal]R[dPhe(4-I)]R-NH2) | – |
| 30 | – | CC(=O)N[C@H](Cc1ccc2ccccc2c1)C(=O)N[C@@H](CCCNC(=N)N)C(=O)N[C@@H](Cc1ccc2ccccc2c1)C(=O)N[C@H](Cc1ccc2ccccc2c1)C(N)=O [Peptide 23, Ac-DNal(2’)-Arg-Nal(2’)-DNal(2’)-NH2] (Ac-[d2Nal]R[2Nal][d2Nal]-NH2) | mMC5R percent maximal stimulatory response (compared to NDP-MSH) [3]: 25% @100μM |
| 35 | – | CC(=O)N[C@H](Cc1ccc2ccccc2c1)C(=O)N[C@H](Cc1ccc2ccccc2c1)C(=O)N[C@H](Cc1ccc2ccccc2c1)C(=O)N[C@@H](CCCNC(=N)N)C(N)=O [Peptide 3, Ac-DNal(2’)-DNal(2’)-DNal(2’)-Arg-NH2] | – |

| SMILES | mMC3R percent maximal stimulatory response (compared to NDP-MSH) [2] [% @100μM] | mMC1R agonist activity in words [1] | other results |
| --- | --- | --- | --- |
| CC(=O)N[C@H](Cc1ccc(I)cc1)C(=O)N[C@@H](CCCNC(=N)N)C(=O)N[C@@H](Cc1c[nH]c2ccccc12)C(=O)N[C@@H](CCCNC(=N)N)C(N)=O [Peptide 42, Ac-DPhe(pI)-Arg-Trp-Arg-NH2] (Ac-[dPhe(4-I)]RWR-NH2) | 25 | – | mMC1R partial agonist percentage of receptor activation relative to NDP-MSH [1]: 50 % NDP |
| CC(=O)N[C@H](Cc1ccc2ccccc2c1)C(=O)N[C@@H](CCCNC(=N)N)C(=O)N[C@H](Cc1ccc2ccccc2c1)C(=O)N[C@H](Cc1ccc2ccccc2c1)C(N)=O [Peptide 14, Ac-DNal(2’)-Arg-DNal(2’)-DNal(2’)-NH2] (Ac-[d2Nal]R[d2Nal][d2Nal]-NH2) | 50 | – | mMC1R partial agonist percentage of receptor activation relative to NDP-MSH [1]: 85 % NDP; mMC5R percent maximal stimulatory response (compared to NDP-MSH) [3]: 20% @100μM |

— article PMC8533642 (Journal of medicinal chemistry, 2021)
